Laboratory results published in ChEMBL document CHEMBL4665713, “Synthesis and biological evaluation of novel quinazoline-triazole hybrid compounds with potential use in Alzheimer's disease” (Bioorg Med Chem Lett, 2020).

Columns and labels:
Acetylcholinesterase [1] = target: T1, Acetylcholinesterase (Rattus norvegicus, UniProt P37136); assay: Inhibition of AChE in rat brain using acetylthiocholine iodide as substrate by Ellman's UV-vis spectrophotometric method; format: tissue-based
T1 sequence (P37136 whole entry): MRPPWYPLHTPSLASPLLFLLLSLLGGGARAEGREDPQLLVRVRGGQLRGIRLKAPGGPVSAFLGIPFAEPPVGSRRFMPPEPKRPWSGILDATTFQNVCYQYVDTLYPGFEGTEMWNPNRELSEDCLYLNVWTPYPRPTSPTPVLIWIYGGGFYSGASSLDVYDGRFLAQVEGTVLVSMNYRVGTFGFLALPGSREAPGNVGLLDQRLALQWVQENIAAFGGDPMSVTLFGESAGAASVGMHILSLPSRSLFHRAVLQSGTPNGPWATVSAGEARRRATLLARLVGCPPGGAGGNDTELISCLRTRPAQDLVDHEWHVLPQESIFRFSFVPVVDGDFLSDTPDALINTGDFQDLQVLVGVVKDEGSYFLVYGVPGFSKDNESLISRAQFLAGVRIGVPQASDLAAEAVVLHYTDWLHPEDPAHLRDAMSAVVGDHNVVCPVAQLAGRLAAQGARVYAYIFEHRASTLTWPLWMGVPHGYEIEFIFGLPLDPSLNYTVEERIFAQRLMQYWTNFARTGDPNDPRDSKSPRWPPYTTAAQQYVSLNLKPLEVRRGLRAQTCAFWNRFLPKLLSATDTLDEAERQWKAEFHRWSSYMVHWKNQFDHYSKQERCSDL

[2] = Cytotoxicity against human KB-CCL-17 cells assessed as reduction in cell viability by MTT assay; format: functional, cell-based
[3] = Cytotoxicity against human Lu1 cells assessed as reduction in cell viability by MTT assay; format: functional, cell-based
HepG2 = assay: Cytotoxicity against human HepG2 cells assessed as reduction in cell viability by MTT assay; format: functional, cell-based
Acetylcholinesterase [4] = target: Acetylcholinesterase (Electrophorus electricus, UniProt O42275); assay: Inhibition of electric eel AChE using acetylthiocholine iodide as substrate preincubated with enzyme for 10 mins prior to substrate addition and measured for 6 mins by Ellman's method
Acetylcholinesterase (Electrophorus electricus, UniProt O42275), sequence (O42275 whole entry): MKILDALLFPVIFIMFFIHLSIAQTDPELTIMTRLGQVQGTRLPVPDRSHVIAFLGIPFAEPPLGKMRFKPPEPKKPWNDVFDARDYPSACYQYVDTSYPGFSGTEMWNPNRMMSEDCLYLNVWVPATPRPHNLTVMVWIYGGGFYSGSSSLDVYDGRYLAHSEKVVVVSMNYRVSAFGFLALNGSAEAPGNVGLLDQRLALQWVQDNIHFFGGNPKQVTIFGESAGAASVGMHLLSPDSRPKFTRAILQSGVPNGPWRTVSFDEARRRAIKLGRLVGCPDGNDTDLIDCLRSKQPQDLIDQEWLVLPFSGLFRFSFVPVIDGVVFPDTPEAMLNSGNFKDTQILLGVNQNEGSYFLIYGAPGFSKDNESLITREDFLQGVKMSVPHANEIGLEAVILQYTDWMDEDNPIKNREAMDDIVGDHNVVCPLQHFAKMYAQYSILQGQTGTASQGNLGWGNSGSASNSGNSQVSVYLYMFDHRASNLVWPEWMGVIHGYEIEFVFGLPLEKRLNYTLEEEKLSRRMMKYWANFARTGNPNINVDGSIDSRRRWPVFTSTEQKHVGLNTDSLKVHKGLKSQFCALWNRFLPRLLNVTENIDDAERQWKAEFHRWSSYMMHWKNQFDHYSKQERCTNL

Row | Structure (SMILES) | IC50 (Acetylcholinesterase [1]) [µM] | IC50 [2] [µM] | IC50 [3] [µM] | IC50 (HepG2) [µM] | IC50 (Acetylcholinesterase [4]) [nM]
1 | N#Cc1cc(-n2cc(COc3ccc4ncnc(NCc5ccccc5)c4c3)nn2)ccc1C(F)(F)F | > 200 | – | – | – | –
2 | O=[N+]([O-])c1cccc(Nc2ncnc3ccc(OCc4cn(-c5cccc([N+](=O)[O-])c5)nn4)cc23)c1 | > 200 | – | – | – | –
3 | O=[N+]([O-])c1ccccc1-n1cc(COc2ccc3ncnc(NCc4ccccc4)c3c2)nn1 | 0.23 | 42.7 | > 200 | > 200 | –
4 | CN1CCN(c2ncnc3ccc(OCc4cn(-c5ccc([N+](=O)[O-])cc5)nn4)cc23)CC1 | > 200 | – | – | – | –
5 | CN1CCN(c2ncnc3ccc(OCc4cn(-c5ccccc5[N+](=O)[O-])nn4)cc23)CC1 | 37.4 | > 200 | > 200 | 142 | –
6 | O=[N+]([O-])c1ccc(-n2cc(COc3ccc4ncnc(Nc5cccc([N+](=O)[O-])c5)c4c3)nn2)cc1 | > 200 | – | – | – | –
7 | O=[N+]([O-])c1cccc(Nc2ncnc3ccc(OCc4cn(-c5ccccc5[N+](=O)[O-])nn4)cc23)c1 | 2.06 | > 200 | > 200 | > 200 | –
8 | Cc1c2ccncc2c(C)c2c1[nH]c1ccccc12 [ELLIPTECINE] | – | 1.1 | 1.3 | 0.85 | –
9 | Cc1ccc(Cn2cc(Oc3ccc4cc(C(=O)NC5CCN(Cc6ccccc6)CC5)c(=O)oc4c3)nn2)cc1C | – | – | – | – | 1800
10 | CN1CCN(c2ncnc3ccc(OCc4cn(-c5cccc([N+](=O)[O-])c5)nn4)cc23)CC1 | 15.8 | > 200 | > 200 | > 200 | –
11 | O=[N+]([O-])c1ccc(-n2cc(COc3ccc4ncnc(NCc5ccccc5)c4c3)nn2)cc1 | > 200 | – | – | – | –
12 | O=[N+]([O-])c1cccc(-n2cc(COc3ccc4ncnc(NCc5ccccc5)c4c3)nn2)c1 | 1.1 | > 200 | > 200 | 94.1 | –
13 | CN1CCN(c2ncnc3ccc(OCc4cn(-c5ccc(C(F)(F)F)c(C#N)c5)nn4)cc23)CC1 | > 200 | – | – | – | –
14 | C#CCOc1ccc2ncnc(N3CCN(C)CC3)c2c1 | 83.9 | > 200 | > 200 | > 200 | –
15 | N#Cc1cc(-n2cc(COc3ccc4ncnc(Nc5cccc([N+](=O)[O-])c5)c4c3)nn2)ccc1C(F)(F)F | > 200 | – | – | – | –
16 | C#CCOc1ccc2ncnc(NCc3ccccc3)c2c1 | 47.7 | 59.7 | > 200 | > 200 | –
17 | C#CCOc1ccc2ncnc(Nc3cccc([N+](=O)[O-])c3)c2c1 | > 200 | – | – | – | –
